This is an account of results in ChEMBL document CHEMBL1125472, “5-lipoxygenase: properties, pharmacology, and the quinolinyl(bridged)aryl class of inhibitors” (J Med Chem, 1992).

In assay [1] the target is T1, Polyunsaturated fatty acid 5-lipoxygenase (Mus musculus, UniProt P48999).
T1 sequence (P48999 whole entry): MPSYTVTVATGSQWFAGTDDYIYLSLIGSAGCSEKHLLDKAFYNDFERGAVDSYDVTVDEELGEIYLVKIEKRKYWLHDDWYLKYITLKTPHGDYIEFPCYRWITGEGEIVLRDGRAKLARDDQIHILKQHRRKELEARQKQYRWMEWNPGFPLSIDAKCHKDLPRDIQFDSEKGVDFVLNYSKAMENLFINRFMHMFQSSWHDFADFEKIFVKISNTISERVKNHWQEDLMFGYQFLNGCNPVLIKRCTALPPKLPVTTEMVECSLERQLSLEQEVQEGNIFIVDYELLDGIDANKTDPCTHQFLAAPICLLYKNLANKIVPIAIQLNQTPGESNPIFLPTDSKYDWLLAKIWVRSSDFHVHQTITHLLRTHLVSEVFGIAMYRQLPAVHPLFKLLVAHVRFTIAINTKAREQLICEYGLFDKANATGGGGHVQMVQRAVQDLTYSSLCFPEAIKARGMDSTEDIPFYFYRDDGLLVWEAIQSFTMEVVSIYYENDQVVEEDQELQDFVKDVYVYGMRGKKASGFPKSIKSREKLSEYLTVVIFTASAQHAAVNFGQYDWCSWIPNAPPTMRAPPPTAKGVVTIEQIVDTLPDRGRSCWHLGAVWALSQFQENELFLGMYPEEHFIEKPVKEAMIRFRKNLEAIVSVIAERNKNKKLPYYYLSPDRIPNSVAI
The assay can be described thus: The compound was tested for inhibitory activity against 5-lipoxygenase in mouse macrophages.

In assay [2] the target is T2, Polyunsaturated fatty acid 5-lipoxygenase (Rattus norvegicus, UniProt P12527).
T2 sequence (P12527 whole entry): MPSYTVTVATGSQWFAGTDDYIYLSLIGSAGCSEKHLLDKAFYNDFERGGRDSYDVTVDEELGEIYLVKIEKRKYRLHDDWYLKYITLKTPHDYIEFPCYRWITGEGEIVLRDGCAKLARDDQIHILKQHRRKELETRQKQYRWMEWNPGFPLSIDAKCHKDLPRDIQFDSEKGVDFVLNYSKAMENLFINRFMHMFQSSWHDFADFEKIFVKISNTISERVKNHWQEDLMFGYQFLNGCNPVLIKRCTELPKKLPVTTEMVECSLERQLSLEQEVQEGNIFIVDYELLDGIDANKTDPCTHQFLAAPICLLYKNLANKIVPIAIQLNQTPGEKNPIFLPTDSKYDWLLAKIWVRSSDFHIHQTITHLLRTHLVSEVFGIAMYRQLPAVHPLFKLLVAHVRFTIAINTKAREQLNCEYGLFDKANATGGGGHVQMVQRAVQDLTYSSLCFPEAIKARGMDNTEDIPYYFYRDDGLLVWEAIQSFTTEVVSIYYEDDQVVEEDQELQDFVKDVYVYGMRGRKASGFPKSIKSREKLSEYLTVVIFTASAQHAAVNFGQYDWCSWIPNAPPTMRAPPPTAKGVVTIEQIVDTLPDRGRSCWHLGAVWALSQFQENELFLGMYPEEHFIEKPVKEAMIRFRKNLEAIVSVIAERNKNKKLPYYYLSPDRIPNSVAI
Briefly: The compound was tested for inhibitory activity against 5-lipoxygenase in rat polymorphonuclear leukocytes[PMNS]. The format is cell-based.

The target of assay [3] is T3, Polyunsaturated fatty acid 5-lipoxygenase (Rattus norvegicus) (UniProt P12527).
T3 sequence (whole entry): T2 sequence (P12527 whole entry)
Briefly: The compound was tested for inhibition of 5-lipoxygenase in rat RBL-2H3 cells. The format is cell-based.

Assay [4] addresses T3, Polyunsaturated fatty acid 5-lipoxygenase (Rattus norvegicus). Briefly: The compound was tested for inhibition of 5-lipoxygenase translocation in SAR in rat RBL-2H3 cells. The format is cell-based.
The species named for a further assay is Cavia porcellus. Briefly: The effective dose which inhibits UVB-induced guinea pig skin erythema. The format is functional.
The species entered for assay [5] is Mus musculus. The assay can be described thus: Compound was tested for tetradecanoylphorbol acetate (TPA) induced inflammation at concentration of 1 mg/ear in mouse. The format is functional.
The species named for assay [6] is Mus musculus. Briefly: The effective dose which inhibits […](AA) and tetradecanoylphorbol acetate(TPA) induced inflammation. The format is functional.
The species named for assay [7] is Mus musculus. Briefly: The effective dose which inhibits […] induced contact hypersensitivity in mouse ears. The format is functional.

In the case of `c1ccc2nc(COc3cccc4ccccc34)ccc2c1`, the IC50 (as a rule, the concentration needed to halve the response being measured) in assay [1] turned out to be 200 nM; in assay [2], 400 nM. Further, the results for the Inhibition (in assay [3]; in assay [4]; in the assay filed under Mus musculus [5]) were > 10 µM, 500 nM and 40%, respectively. The ED50 amounted to 0.25 mg/spot in the assay filed under Cavia porcellus, 0.3 mg ear-1 in the assay listed under Mus musculus [6] and 0.4 mg ear-1 in the assay listed under Mus musculus [7].
